Assay results as given in ChEMBL document CHEMBL4808217, “Design, Synthesis, and Characterization of 4-Aminoquinazolines as Potent Inhibitors of the G Protein-Coupled Receptor Kinase 6 (GRK6) for the Treatment of Multiple Myeloma” (J Med Chem, 2021).

Tests used:
Rhodopsin kinase GRK1 = target: T1, Rhodopsin kinase GRK1 (Homo sapiens, UniProt Q15835); experiment: Inhibition of human GRK1 using casein as substrate in presence of [gamma33P]ATP by radiometric hotspot kinase assay
T1 sequence (Q15835 whole entry): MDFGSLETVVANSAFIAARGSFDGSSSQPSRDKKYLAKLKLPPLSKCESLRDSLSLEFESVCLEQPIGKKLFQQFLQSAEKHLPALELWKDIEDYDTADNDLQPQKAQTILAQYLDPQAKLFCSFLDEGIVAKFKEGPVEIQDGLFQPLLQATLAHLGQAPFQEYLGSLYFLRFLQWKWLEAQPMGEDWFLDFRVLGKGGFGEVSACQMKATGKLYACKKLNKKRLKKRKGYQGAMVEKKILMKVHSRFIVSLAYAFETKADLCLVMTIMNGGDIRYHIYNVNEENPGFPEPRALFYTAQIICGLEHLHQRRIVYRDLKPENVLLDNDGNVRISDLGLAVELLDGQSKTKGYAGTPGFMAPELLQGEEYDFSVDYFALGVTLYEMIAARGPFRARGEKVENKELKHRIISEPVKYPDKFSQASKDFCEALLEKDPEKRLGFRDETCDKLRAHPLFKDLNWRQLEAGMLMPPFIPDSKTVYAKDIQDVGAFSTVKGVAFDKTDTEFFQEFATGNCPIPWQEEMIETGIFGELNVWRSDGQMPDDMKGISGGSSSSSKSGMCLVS

Rhodopsin kinase GRK7 = target: T2, Rhodopsin kinase GRK7 (Homo sapiens, UniProt Q8WTQ7); experiment: Inhibition of recombinant full length human GRK7 using casein as substrate incubated for 40 mins in presence of [gamma-33ATP] by scintillation counting based radiometry assay
T2 sequence (Q8WTQ7 whole entry): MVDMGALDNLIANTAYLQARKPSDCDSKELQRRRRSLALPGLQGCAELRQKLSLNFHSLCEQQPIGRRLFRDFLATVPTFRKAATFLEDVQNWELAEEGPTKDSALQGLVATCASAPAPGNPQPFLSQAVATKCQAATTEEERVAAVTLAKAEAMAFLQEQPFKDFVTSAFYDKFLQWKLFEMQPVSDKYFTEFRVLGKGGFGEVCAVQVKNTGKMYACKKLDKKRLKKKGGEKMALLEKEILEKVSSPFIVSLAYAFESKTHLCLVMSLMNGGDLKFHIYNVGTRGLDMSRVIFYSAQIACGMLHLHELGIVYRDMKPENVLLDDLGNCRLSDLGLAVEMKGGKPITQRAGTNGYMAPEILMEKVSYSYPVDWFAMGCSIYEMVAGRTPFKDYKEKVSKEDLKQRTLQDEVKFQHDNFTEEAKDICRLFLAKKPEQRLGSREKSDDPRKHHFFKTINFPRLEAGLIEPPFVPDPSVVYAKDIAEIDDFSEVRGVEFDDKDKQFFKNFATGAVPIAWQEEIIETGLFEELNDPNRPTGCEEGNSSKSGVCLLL

[1] = target: T3, G protein-coupled receptor kinase 3 (Homo sapiens, UniProt P35626); experiment: Inhibition of human GRK3 using casein as substrate in presence of [gamma33P]ATP by radiometric hotspot kinase assay
T3 sequence (P35626 whole entry): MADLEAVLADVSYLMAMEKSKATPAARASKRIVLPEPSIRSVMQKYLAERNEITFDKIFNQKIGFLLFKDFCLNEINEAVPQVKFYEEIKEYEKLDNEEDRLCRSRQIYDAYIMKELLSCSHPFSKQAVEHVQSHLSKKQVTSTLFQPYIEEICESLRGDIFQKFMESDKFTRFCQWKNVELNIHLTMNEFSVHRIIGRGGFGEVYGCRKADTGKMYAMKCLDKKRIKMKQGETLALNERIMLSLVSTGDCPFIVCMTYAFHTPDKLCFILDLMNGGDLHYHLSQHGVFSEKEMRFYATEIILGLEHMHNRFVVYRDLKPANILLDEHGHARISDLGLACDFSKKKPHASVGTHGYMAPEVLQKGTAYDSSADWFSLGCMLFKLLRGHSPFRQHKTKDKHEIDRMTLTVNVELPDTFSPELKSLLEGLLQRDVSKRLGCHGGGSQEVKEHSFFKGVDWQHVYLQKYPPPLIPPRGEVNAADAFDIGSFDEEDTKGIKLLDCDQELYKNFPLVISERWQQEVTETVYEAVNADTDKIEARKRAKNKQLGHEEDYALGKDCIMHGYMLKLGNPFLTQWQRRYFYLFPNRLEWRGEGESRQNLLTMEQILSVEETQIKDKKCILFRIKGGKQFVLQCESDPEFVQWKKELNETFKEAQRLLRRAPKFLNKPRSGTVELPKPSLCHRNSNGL

Focal adhesion kinase 1 = Focal adhesion kinase 1 (Homo sapiens, UniProt Q05397); experiment: Inhibition of recombinant human FAK (411 to 686 residues) using EEEEYEEEEEEYY as substrate incubated for 40 mins in presence of [gamma-33ATP] by scintillation counting based radiometry assay
[2] = target: T4, G protein-coupled receptor kinase 6 (Homo sapiens, UniProt P43250); experiment: Inhibition of recombinant full-length human GRK6 using casein as substrate measured after 80 mins in presence of [gamma33P]ATP by radiometric scintillation counting method
[3] = target: T4, G protein-coupled receptor kinase 6; experiment: Binding affinity to FLAG-tagged GRK6 in human KMS11 cells incubated for […] by ITDR assay; assay type: cell-based, KMS-11
[4] = target: Serine/threonine-protein kinase Chk2 (Homo sapiens, UniProt O96017); experiment: Inhibition of recombinant human CHK2 (5 to end residues) using KKKVSRSGLYRSPSMPENLNRPR as substrate incubated for 40 mins in presence of [gamma-33ATP] by scintillation counting based radiometry assay
[5] = target: Death-associated protein kinase 3 (Homo sapiens, UniProt O43293); experiment: Inhibition of recombinant human ZIPK (1 to 290 residues) using KKLNRTLSFAEPG substrate incubated for 40 mins in presence of [gamma33P]ATP by scintillation counting based radiometry assay
[6] = target: Tyrosine-protein kinase JAK2 (Homo sapiens, UniProt O60674); experiment: Inhibition of recombinant human JAK2 (808 to end residues) using KTFCGTPEYLAPE as substrate incubated for 40 mins in presence of [gamma33P]ATP by radiometric scintillation counting analysis
[7] = target: T4, G protein-coupled receptor kinase 6; experiment: Inhibition of human GRK6 using casein as substrate in presence of [gamma33P]ATP by radiometric hotspot kinase assay

T4 sequence (P43250 whole entry): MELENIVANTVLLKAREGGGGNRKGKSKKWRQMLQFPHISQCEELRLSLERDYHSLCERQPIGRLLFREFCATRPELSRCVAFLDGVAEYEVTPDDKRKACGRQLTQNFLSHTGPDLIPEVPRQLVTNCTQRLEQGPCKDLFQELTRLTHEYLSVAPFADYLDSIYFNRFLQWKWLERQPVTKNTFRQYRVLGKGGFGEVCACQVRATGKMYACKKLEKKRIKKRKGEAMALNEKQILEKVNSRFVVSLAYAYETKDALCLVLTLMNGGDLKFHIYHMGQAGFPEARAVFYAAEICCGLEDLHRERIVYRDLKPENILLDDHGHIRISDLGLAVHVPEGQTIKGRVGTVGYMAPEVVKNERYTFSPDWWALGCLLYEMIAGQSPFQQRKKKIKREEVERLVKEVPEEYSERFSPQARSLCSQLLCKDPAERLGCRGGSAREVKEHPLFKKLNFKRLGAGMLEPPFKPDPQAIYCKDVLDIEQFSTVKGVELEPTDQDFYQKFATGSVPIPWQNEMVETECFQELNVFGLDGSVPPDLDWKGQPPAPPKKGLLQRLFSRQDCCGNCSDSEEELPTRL
Sequence of Serine/threonine-protein kinase Chk2 (O96017 whole entry, the tested form may be a part): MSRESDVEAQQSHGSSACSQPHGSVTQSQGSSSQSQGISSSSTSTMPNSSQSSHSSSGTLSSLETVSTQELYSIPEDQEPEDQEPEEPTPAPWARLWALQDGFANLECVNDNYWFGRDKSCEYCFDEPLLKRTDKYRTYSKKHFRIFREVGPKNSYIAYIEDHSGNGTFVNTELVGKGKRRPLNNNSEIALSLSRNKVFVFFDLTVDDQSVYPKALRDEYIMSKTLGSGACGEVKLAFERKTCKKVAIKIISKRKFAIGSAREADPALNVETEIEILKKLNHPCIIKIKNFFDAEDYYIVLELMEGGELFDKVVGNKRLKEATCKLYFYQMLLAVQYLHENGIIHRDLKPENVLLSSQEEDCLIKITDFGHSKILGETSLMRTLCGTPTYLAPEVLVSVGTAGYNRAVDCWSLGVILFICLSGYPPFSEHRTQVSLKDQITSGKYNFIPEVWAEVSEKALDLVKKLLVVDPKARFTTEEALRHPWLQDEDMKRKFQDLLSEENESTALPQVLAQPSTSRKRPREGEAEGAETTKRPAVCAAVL
Sequence of Death-associated protein kinase 3 (O43293 whole entry, the tested form may be a part): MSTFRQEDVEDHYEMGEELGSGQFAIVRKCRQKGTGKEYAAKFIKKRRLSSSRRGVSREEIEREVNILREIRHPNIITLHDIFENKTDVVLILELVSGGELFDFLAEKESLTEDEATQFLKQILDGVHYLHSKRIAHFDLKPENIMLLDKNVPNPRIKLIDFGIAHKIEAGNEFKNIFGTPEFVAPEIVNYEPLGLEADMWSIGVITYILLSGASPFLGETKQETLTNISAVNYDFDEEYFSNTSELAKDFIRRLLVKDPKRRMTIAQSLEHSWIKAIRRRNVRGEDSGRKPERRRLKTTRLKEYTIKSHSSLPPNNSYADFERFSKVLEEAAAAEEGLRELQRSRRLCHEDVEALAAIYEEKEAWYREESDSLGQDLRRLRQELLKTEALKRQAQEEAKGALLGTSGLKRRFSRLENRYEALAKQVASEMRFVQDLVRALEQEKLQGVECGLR
Sequence of Tyrosine-protein kinase JAK2 (O60674 whole entry): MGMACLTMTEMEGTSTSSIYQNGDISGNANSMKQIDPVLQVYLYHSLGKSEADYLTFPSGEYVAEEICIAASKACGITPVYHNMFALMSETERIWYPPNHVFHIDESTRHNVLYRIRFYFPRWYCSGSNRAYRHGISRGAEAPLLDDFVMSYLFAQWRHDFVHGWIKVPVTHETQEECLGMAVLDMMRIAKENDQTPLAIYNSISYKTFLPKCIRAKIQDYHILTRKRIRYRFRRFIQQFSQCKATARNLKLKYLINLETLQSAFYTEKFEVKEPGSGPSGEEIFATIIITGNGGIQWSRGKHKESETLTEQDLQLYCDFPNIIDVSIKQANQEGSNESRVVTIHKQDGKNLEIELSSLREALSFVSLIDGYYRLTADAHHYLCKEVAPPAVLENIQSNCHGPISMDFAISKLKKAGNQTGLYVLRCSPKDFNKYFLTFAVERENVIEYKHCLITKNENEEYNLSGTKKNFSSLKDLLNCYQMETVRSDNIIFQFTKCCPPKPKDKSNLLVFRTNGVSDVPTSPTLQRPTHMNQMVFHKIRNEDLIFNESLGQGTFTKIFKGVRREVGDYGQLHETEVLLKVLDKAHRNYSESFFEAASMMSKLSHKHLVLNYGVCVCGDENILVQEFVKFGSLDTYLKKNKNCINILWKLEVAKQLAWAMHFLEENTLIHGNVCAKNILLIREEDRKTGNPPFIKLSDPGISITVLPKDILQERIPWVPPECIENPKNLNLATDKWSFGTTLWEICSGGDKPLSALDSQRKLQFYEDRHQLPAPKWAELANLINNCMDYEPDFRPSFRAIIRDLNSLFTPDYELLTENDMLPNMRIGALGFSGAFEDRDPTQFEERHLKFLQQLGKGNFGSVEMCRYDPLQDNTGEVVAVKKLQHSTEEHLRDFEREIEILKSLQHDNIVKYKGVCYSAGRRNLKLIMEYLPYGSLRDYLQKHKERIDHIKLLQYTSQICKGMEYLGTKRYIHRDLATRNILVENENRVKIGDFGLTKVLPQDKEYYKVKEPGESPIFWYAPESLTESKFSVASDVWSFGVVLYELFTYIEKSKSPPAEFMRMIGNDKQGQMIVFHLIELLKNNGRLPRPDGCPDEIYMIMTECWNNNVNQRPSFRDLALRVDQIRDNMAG
Sequence of Focal adhesion kinase 1 (Q05397 whole entry, the tested form may be a part): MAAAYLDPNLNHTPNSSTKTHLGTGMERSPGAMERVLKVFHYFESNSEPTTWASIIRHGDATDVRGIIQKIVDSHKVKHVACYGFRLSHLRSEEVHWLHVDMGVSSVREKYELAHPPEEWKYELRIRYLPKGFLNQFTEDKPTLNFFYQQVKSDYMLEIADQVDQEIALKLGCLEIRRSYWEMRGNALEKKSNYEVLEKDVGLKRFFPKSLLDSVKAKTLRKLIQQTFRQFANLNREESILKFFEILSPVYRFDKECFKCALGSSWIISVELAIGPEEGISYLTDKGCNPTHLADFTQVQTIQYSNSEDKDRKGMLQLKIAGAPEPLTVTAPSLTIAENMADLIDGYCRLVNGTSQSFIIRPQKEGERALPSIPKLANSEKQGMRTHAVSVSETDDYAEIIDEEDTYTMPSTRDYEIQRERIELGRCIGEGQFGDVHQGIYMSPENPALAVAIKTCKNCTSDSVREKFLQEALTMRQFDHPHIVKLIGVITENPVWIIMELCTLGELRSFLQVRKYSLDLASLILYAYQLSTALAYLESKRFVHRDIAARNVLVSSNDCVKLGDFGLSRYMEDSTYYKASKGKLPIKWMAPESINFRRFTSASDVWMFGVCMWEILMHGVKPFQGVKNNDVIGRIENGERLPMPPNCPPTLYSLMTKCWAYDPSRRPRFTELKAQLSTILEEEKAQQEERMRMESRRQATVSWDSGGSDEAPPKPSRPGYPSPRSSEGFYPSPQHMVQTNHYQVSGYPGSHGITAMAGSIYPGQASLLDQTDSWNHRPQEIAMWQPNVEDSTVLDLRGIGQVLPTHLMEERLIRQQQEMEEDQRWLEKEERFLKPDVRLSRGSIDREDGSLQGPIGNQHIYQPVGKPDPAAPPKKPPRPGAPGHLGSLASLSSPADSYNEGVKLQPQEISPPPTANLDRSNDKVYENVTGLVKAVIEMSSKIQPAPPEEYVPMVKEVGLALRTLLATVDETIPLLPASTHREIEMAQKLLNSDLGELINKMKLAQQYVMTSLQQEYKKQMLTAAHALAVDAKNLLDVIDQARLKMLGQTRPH

IC50 (Rhodopsin kinase GRK1): 52 nM
IC50 (Rhodopsin kinase GRK7): 6.4 nM
IC50 [1]: > 10000 nM
IC50 (Focal adhesion kinase 1): 220 nM
IC50 [2]: 8 nM
IC50 [3]: 30 nM
IC50 [4]: 820 nM
IC50 [6]: > 10000 nM
IC50 [7]: 3.8 nM
SMILES: CCc1cc(Nc2nc(NCc3ccc(Cl)cc3OC)nc3cccc(OC)c23)n[nH]1
IC50 [5]: 720 nM
